US9133163B2, “Dihydropyrazole GPR40 modulators” (Bristol-Myers Squibb Company, priority 2012, dated 2015)
pEC50: −log10 of the molar value.

How the values were obtained:
hGPR40 [1] = target: T1, hGPR40 (Homo sapiens, UniProt O14842); assay: GPR40 IP-One HTRF assay in HEK293/GPR40 inducible cell lines; format: cell-based; set-up: expressed in transfected cells; details: HEK293 cells with tetracycline-inducible human GPR40; read-out: hGPR40 IP1 EC50
Method: GPR40 IP-One HTRF Assays in HEK293/GPR40 Inducible Cell Lines
Human, mouse and rat GPR40-mediated intracellular IP-One HTRF assays were established using human embryonic kidney HEK293 cells stably transfected with a tetracycline-inducible human, mouse or rat GPR40 receptor. Cells were routinely cultured in growth medium containing DMEM (Gibco Cat. #12430-047), 10% qualified FBS (Sigma, Cat. #F2442), 200 μg/ml hygromycin (Invitrogen, Cat. #16087-010) and 1.5 μg/ml blasticidin (Invitrogen, Cat. #R210-01). About 12-15 million cells were passed into a T175 tissue culture flask (BD FALCON® 353112) with growth medium and incubated for 16-18 hours (overnight) at 370 C with 5% CO2. The next day, assay medium was exchanged with growth medium containing 1000 ng/mL of tetracycline (Fluka Analytical, Cat. #87128) to induce GPR40 expression for 18-24 hours at […] incubator with 5% CO2. After induction, the cells were washed with PBS (Gibco, Cat. #14190-036) and detached with Cell Stripper (CELLGRO®, Cat. #25-056-CL). 10-20 mL growth medium were added to the flask and cells were collected in 50 mL tubes (FALCON®, Cat. #352098) and spun at 1000 RPM for 5 minutes. Culture medium was aspirated and the cells were resuspended in 10 mL of 1× IP-One Stimulation Buffer from the Cisbio IP-One kit (Cisbio, Cat. #62IPAPEJ). The cells were diluted to 1.4×10^6 cells/mL in Stimulation Buffer.
Test compounds were 3-fold, 11-point serially diluted in DMSO in a REMP assay plate (Matrix Cat. #4307) by BIOCEL® (Agilent). The compounds were transferred into an Echo plate (LABCYTE, Cat. #LP-0200) and […] of diluted compounds were transferred to an assay plate (proxi-plate from Perkin Elmer, Cat. #6008289) by Echo acoustic nano dispenser (LABCYTE, model ECHO550). 14 μL of the diluted cells were then added to the assay plate by Thermo (SN 836 330) CombiDrop and incubated at room temperature for 45 minutes. Then 3 μL of IP1 coupled to dye D2 from the Cisbio IP-One kit were added to the assay plate followed by 3 μL of Lumi4TM-Tb cryptate K from the kit. The plate was further incubated at room for 1 hour before reading on the Envision (Perkin Elmer Model2101) with an HTRF protocol. Activation data for the test compound over a range of concentrations was plotted as percentage activation of the test compound (100%=maximum response). After correcting for background [(sample read-mean of low control)/(mean of high control−mean of low control)](low control is DMSO without any compound), EC50 values were determined. The EC50 is defined as the concentration of test compound which produces 50% of the maximal response and was quantified using the 4 parameter logistic equation to fit the data.

C57BL6 mice = assay: Acute oral glucose tolerance test; format: in vivo; details: % change in glucose AUC (0-180 min) from vehicle, 0.3 mg/kg oral, co-administered with glucose 2 g/kg
Method: Acute Oral Glucose Tolerance Test
Ten week old C57BL6 mice were housed individually and fasted for 5 hours on the day of study. Tail vein sampling was performed from nicked tails to obtain plasma samples. Baseline plasma samples were taken at t=0. Mice were orally treated with vehicle or compounds co-administered with glucose (2 g/kg). Sampling thereafter from tails of treated mice at 20, 40, 60, 120 and 180 min provided data used for generating glucose excursion curves from which 0-180 min blood glucose excursion profiles were generated. The area under the curve (AUC) allowed for assessment of glucose lowering by compound treatments. Blood samples were collected in EDTA-treated tubes (MICROVETTE® CB300, Sarstedt, Numbrecht, Germany), stored on ice and spun @ 6000 rpm for 10 minutes. Plasma glucose was analyzed on the same day using an AU680 Clinical Chemistry Analyzer (Beckman Coulter, Brea, Calif.). Statistical analysis is a one way ANOVA with Dunnett's post hoc test or two-way student's t test where appropriate. P values less than 0.05 were considered statistically significant.

hGPR40 [2] = target: T1, hGPR40; assay: FDSS-based intracellular calcium assay; format: cell-based; set-up: 3xFLAG; expressed in transfected cells; details: intracellular Ca2+ response, cells expressing GPR40
Method: FDSS-Based Intracellular Calcium Assay
Compounds are dissolved in DMSO and diluted to desired concentrations with assay buffer and added to the cells as 3× solution (20 μL per well). Run fluorescence/luminescence reader FDSS (Hamamatsu) to read intracellular Ca^2+ response.

T1 sequence (O14842 whole entry): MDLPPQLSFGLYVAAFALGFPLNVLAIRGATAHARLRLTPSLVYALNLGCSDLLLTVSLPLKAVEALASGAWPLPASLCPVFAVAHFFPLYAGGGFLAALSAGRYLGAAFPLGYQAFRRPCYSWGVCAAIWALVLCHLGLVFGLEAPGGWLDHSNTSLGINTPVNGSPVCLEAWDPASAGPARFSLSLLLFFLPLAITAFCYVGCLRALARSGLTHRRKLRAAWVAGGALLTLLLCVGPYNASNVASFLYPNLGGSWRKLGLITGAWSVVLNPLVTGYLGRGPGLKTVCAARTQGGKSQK

SMILES	pEC50 (hGPR40 [1])	Acute oral glucose tolerance (C57BL6 mice) [%]	pEC50 (hGPR40 [2])
COc1cc(N2CCC(Oc3ccc(N4N=C(C(F)(F)F)[C@@H](C)[C@@H]4CC(=O)O)cc3)CC2)c(Cl)cn1 [Example 77, 2-((4S,5S)-1-(4-((1-(5-Chloro-2-methoxypyridin-4-yl)piperidin-4-yl)oxy)phenyl)-4-methyl-3-(trifluoromethyl)-4,5-dihydro-1H-pyrazol-5-yl)acetic acid]	7.70	−38	6.96
CCOc1ccc(F)c(N2CCC(Oc3ccc(N4N=C(c5ccc(C#N)cc5)[C@@H](C)[C@@H]4CC(=O)O)cc3)CC2)c1 [Example 93, 2-((4S,5S)-3-(4-Cyanophenyl)-1-(4-((1-(5-ethoxy-2-fluorophenyl)piperidin-4-yl)oxy)phenyl)-4-methyl-4,5-dihydro-1H-pyrazol-5-yl)acetic acid]	8.15	−56	7.09
